Paper PMC3944524, “Antimicrobial Activity of the Marine Alkaloids, Clathrodin and Oroidin, and Their Synthetic Analogues” (Marine Drugs, 2014)
In brackets after ≈: the same amount, converted by molar mass.

Experiments:
[1] = test system: Staphylococcus aureus (ATCC 25923); experiment: Broth microdilution antimicrobial assay, Staphylococcus aureus; assay type: cell-based; conditions: for SI (selectivity index): S. aureus MIC50 vs Huh-7 cytotoxicity IC50; for MIC90 / MIC50: Staphylococcus aureus; for MIC90: ATCC25923, 24 h; for MIC50: ATCC25923, S. aureus ATCC 25923, 24 h, sigmoidal curve fitting
Description: (§1) Clinical control strains of Enterococcus faecalis (Gram-positive, ATCC 29212), Staphylococcus aureus (Gram-positive, ATCC 25923), Escherichia coli (Gram-negative, ATCC 25922) and a fungal strain, Candida albicans (ATCC 90028), were obtained from Microbiologics Inc. (St. Cloud, MN, USA) and used for the antimicrobial screening. Bacterial strains were grown on Mueller Hinton II agar (MHA, Becton Dickinson, Franklin Lakes, NJ, USA) […] Mueller Hinton II broth (MHB, Becton Dickinson, Franklin Lakes, NJ, USA) and the Candida strain on Sabouraud dextrose agar (SDA, Becton Dickinson, Franklin Lakes, NJ, USA) plates. Media were prepared in MilliQ water, according to the manufacturer's instructions, and autoclaved at 121 °C for 15 min. […] The Candida strain was grown on SDA plates at 28 °C for 18-24 h and suspended into sterile 0.9% saline for the assay. Antimicrobial assays were performed by the broth microdilution method following the guidelines of the Clinical and Laboratory Standards Institute (CLSI) and European Committee on Antimicrobial Susceptibility Testing (EUCAST). […] The Candida suspension was prepared in sterile 0.9% saline solution, and the suspension was diluted in RPMI-1640 media (with L-glutamine, without NaHCO3 and supplemented with 2% glucose and 0.165 M MOPS, buffered to pH 7; Lonza, Basel, Switzerland) to yield a final inoculum of 2.5 × 10^3 CFU/mL in the assay. Assays were carried out in clear 96-well microtiter plates and initiated by dispensing an equal volume of microbial suspension and sample solution diluted into the assay medium. The plates were incubated for 24 h at 37 °C (for Candida, the incubation was at 28 °C for 48 h) with agitation. […] The antimicrobial activity of the samples was calculated from the absorbance values by comparing to untreated controls and expressed as the percentage inhibition of growth. Reference antibiotics were used as positive controls on every assay plate (see Figure 2 for details). […] MIC50 values were determined from the dose-response results by sigmoidal curve fitting with Origin software (OriginLab, Corp., Wellesley Hills, MA, USA).

[2] = Mammalian cell cytotoxicity, ATP assay (CellTiter-Glo); assay type: cell-based, human; conditions: human, Huh-7 cells, ATP assay, 24 h exposure, average of two dose-response experiments
Description: Huh-7 cells (originating from human hepatocellular carcinoma) were kindly provided by Prof. Ralf Bartenschlager (University of Heidelberg, Heidelberg, Germany). […] The cells were incubated at 37 °C in a humidified atmosphere with 5% CO2. The effect of the most promising compounds on the metabolic activity of Huh-7 hepatocytes was assessed by intracellular ATP quantitation (Promega’s CellTiter-Glo Cell Viability Assay, Madison, WI, USA). In brief, cells were seeded at 20,000 cells/well on white-walled 96-well microplates (ViewPlate, PerkinElmer Inc., Wellesley, MA, USA) and incubated at 37 °C, 5% CO2 and 95% humidity overnight and then exposed to the compounds for 24 h. Following the exposure, cells were washed with 100 µL PBS, and 50 µL of fresh assay media and 50 µL of the CellTiter-Glo reagent were added into the wells. After 2 min of shaking and 10 min incubation at rt, luminometric signal was measured using a Varioskan Flash plate reader (Thermo Fisher Scientific, Vantaa, Finland). […] The IC50 values were calculated by fitting the data into sigmoidal dose-response curves with the Origin software.

[3] = test system: Enterococcus faecalis (ATCC 29212); experiment: Broth microdilution antimicrobial assay, Enterococcus faecalis; assay type: cell-based; conditions: for SI (selectivity index): E. faecalis MIC50 vs Huh-7 cytotoxicity IC50; for MIC90 / MIC50: Enterococcus faecalis; for MIC90: ATCC29212, 24 h; for MIC50: ATCC29212, E. faecalis ATCC 29212, 24 h, sigmoidal curve fitting
Description: as §1

| SMILES | melting point [°C] | SI (selectivity index) [1] | MIC90 [1] [µM] | MIC50 [1] [µM] | IC50 at 24 h [2] [µM] | SI (selectivity index) [3] | MIC90 [3] [µM] | MIC50 [3] [µM] |
| --- | --- | --- | --- | --- | --- | --- | --- | --- |
| CC(C)(C)OC(=O)n1cc(-c2cccc(NC(=O)c3cc4sccc4[nH]3)c2)nc1N [Compound 5k, tert-Butyl 4-(3-(4H-thieno[3,2-b]pyrrole-5-carboxamido)phenyl)-2-amino-1H-imidazole-1-carboxylate] | 178 to 180 |  |  |  |  |  |  |  |
| CC(C)(C)OC(=O)n1cc(-c2cccc(NC(=O)c3cc4cc(OC(F)(F)F)ccc4[nH]3)c2)nc1N [Compound 5g, tert-Butyl 2-amino-4-(3-(5-(trifluoromethoxy)-1H-indole-2-carboxamido)phenyl)-1H-imidazole-1-carboxylate] | 185 to 187 |  |  |  |  |  |  |  |
| Cl.Nc1nc(-c2cccc(NC(=O)c3cc4cc(F)ccc4[nH]3)c2)c[nH]1 [Compound 6j, 2-Amino-4-(3-(5-fluoro-1H-indole-2-carboxamido)phenyl)-1H-imidazol-3-ium chloride] | 202 to 205 | 0.9 | 50 | 22.1 | 19.8 | 0.7 | 100 | 27.3 |
| Nc1nc(-c2cccc(NC(=O)c3cc4ccccc4[nH]3)c2)c[nH]1 [Compound 6d] |  | 1.4 | 50 (≈ 15.9 µg/mL) | 29.4 (≈ 9.33 µg/mL) | 42.3 | 1.2 | 50 (≈ 15.9 µg/mL) | 34 (≈ 10.8 µg/mL) |
| Nc1nc(-c2cccc(NCc3ccc[nH]3)c2)cn1Cc1ccccc1 [Compound 16, 4-(3-(((1H-Pyrrol-2-yl)methyl)amino)phenyl)-1-benzyl-1H-imidazol-2-amine] | 165 to 168 |  |  |  |  |  |  |  |
| Cl.Nc1nc(-c2cccc(NC(=O)c3cc4cc(O)ccc4[nH]3)c2)c[nH]1 [Compound 8, 2-Amino-4-(3-(5-hydroxy-1H-indole-2-carboxamido)phenyl)-1H-imidazol-3-ium chloride] | 248 to 252 | >2.5 | 100 | 40.5 | > 100 |  |  |  |
| CC(C)(C)OC(=O)n1cc(-c2cccc(NC(=O)c3cc4cc(O)ccc4[nH]3)c2)nc1N [Compound 7, tert-Butyl 2-Amino-4-(3-(5-hydroxy-1H-indole-2-carboxamido)phenyl)-1H-imidazole-1-carboxylate] | 192 to 196 |  | 100 (≈ 43.3 µg/mL) | 11.6 (≈ 5.03 µg/mL) | 94 |  |  |  |
| CC(C)(C)OC(=O)n1cc(-c2cccc(NC(=O)c3cc4cc(OCc5ccccc5)ccc4[nH]3)c2)nc1N [Compound 5h, tert-Butyl 2-amino-4-(3-(5-(benzyloxy)-1H-indole-2-carboxamido)phenyl)-1H-imidazole-1-carboxylate] | 140 to 143 |  |  |  |  |  |  |  |
| CNc1nc(-c2cccc(NC(=O)c3cc4ccccc4[nH]3)c2)c[nH]1 [Compound 6l] |  | 4.9 | 75 (≈ 24.9 µg/mL) | 10.8 (≈ 3.58 µg/mL) | 52.3 | 1.0 | 100 (≈ 33.1 µg/mL) | 54.2 (≈ 18 µg/mL) |
| COc1ccc2[nH]c(C(=O)Nc3cccc(-c4c[nH]c(N)n4)c3)cc2c1.Cl [Compound 6f, 2-Amino-4-(3-(5-methoxy-1H-indole-2-carboxamido)phenyl)-1H-imidazol-3-ium chloride] | 237 to 241 | 2.7 | 50 | 11.9 | 32.2 |  |  |  |
| Cl.Nc1nc(-c2cccc(NC(=O)c3cc4cc(OC(F)(F)F)ccc4[nH]3)c2)c[nH]1 [Compound 6g, 2-Amino-4-(3-(5-(trifluoromethoxy)-1H-indole-2-carboxamido)phenyl)-1H-imidazol-3-ium chloride] | 255 to 260 |  |  |  |  |  |  |  |
| Cl.Nc1nc(-c2cccc(NC(=O)c3cc4cc(Cl)ccc4[nH]3)c2)c[nH]1 [Compound 6i, 2-Amino-4-(3-(5-chloro-1H-indole-2-carboxamido)phenyl)-1H-imidazol-3-ium chloride] | 201 to 204 | 3.0 | 50 | 7.2 | 21.7 |  |  |  |
| Cl.Nc1nc(-c2cccc(NC(=O)c3cc4sccc4[nH]3)c2)c[nH]1 [Compound 6k, 4-(3-(4H-Thieno[3,2-b]pyrrole-5-carboxamido)phenyl)-2-amino-1H-imidazol-3-ium chloride] | 198 to 202 | 2.0 | 100 | 27.1 | 53.6 |  |  |  |
| CC(C)(C)OC(=O)n1cc(-c2cccc(NC(=O)c3cc4cc(F)ccc4[nH]3)c2)nc1N [Compound 5j, tert-Butyl 2-amino-4-(3-(5-fluoro-1H-indole-2-carboxamido)phenyl)-1H-imidazole-1-carboxylate] | 189 to 192 |  |  |  |  |  |  |  |
| COc1ccc2[nH]c(C(=O)Nc3cccc(-c4cn(C(=O)OC(C)(C)C)c(N)n4)c3)cc2c1 [Compound 5f, tert-Butyl 2-amino-4-(3-(5-methoxy-1H-indole-2-carboxamido)phenyl)-1H-imidazole-1-carboxylate] | 173 to 177 |  |  |  |  |  |  |  |
| Nc1nc(-c2cccc(NC(=O)c3ccc[nH]3)c2)cn1Cc1ccccc1 [Compound 15, N-(3-(2-Amino-1-benzyl-1H-imidazol-4-yl)phenyl)-1H-pyrrole-2-carboxamide] | 229 to 232 |  |  |  |  |  |  |  |
